Measurements: patent US9155743B2, “Bicyclic heterocycle compounds and their uses in therapy” (priority 2011, dated 2015)
pEC50, pIC50: −log10 of the molar value. Where a name gives a salt, the structure may show the parent alone. Read-outs that look alike come from different tables or passages of the source.

Experiments:
[1] = system: XIAP or cIAP1; experiment: Assays using XIAP and cIAP1 (result stated for XIAP or cIAP1); assay type: binding, human
[2] = biological target: XIAP BIR3 domain (Homo sapiens (Human), UniProt P98170); experiment: XIAP in vitro competitive displacement binding assay (fluorescence polarization); conditions: given as ranges; a range also covers PI >= approx 50% at <= the upper concentration; read-out: IC50 or PI Xiap
[3] = system: EVSA-T (human breast carcinoma); experiment: Anti-proliferative activity, Alamar Blue assay, EVSA-T; assay type: cell-based; conditions: for inhibition at 10 µM: read-out: EC50 or PI EVSA-T prolif (percentage inhibition)
[4] = biological target: cIAP-1 BIR3 domain (Homo sapiens (Human), UniProt Q13490); experiment: cIAP-1 in vitro competitive displacement binding assay (fluorescence polarization); conditions: given as ranges, read-out: IC50 or PI cIAP1
[5] = read-out: IC50 or at least 50% inhibition of the activity at a concentration of 1 μM, against XIAP or cIAP1
[6] = read-out: IC50 or at least 50% inhibition of the activity at a concentration of 10 μM, against XIAP or cIAP1
[7] = EVSA-T, 72 hours compound incubation, read-out: EC50 or PI EVSA-T prolif
[8] = read-out: EC50 or greater than 50% at 10 μM, EVSA-T cell line
[9] = AbuRPFK(5&6FAM)-amide probe (Probe B)

Work on `CN[C@@H](C)C(=O)Nc1ccc2c(n1)O[C@@](C)(c1ccccc1)C(=O)N2c1ccc(Cl)cc1` [Example 3, (S)—N—[(S)-1-(4-Chloro-phenyl)-3-methyl-2-oxo-3-phenyl-2,3-dihydro-1H-pyrido[2,3-b][1,4]oxazin-6-yl]-2-methylamino-propionamide hydrochloride] yielded a pIC50 [1, 5] greater than 6.00, a pIC50 [1, 6] greater than 5.00 and a pIC50 [2] of 6.00 to 8.00. The pEC50 [3, 7] was 6.55, the pEC50 [3, 8] was greater than 5.00 and the pIC50 [4, 9] was 6.00 to 8.00.

`CN[C@@H](C)C(=O)Nc1ccc2c(n1)O[C@@H](Cc1ccccc1)C(=O)N2` [Example 4, (S)—N—((S)-3-Benzyl-2-oxo-2,3-dihydro-1H-pyrido[2,3-b][1,4]oxazin-6-yl)-2-methylamino-propionamide hydrochloride] showed a pIC50 [1, 5] greater than 6.00, a pIC50 [1, 6] greater than 5.00 and a pIC50 [2] of 5.00 to 6.00. For the same compound, the inhibition at 10 µM ([3]; EVSA-T) was -13% and the pIC50 ([4]; AVPIK(5&6FAM)-amide probe (Probe A)) was 6.00 to 8.00.

For `CN[C@@H](C)C(=O)Nc1ccc2c(n1)OC(C)(C)C(=O)N2c1ccc(Cl)cc1` [Example 6, (S)-N-[1-(4-Chloro-phenyl)-3,3-dimethyl-2-oxo-2,3-dihydro-1H-pyrido[2,3-b][1,4]oxazin-6-yl]-2-methylamino-propionamide hydrochloride], the pIC50 [1, 5] was greater than 6.00, the pIC50 [1, 6] was greater than 5.00 and the pIC50 [2] was 6.00 to 8.00. For the same compound, the pEC50 [3, 7] was 6.92, the pEC50 [3, 8] was greater than 5.00 and the pIC50 [4, 9] was 6.00 to 8.00.

Compound `CN[C@@H](C)C(=O)Nc1ccc2c(n1)OC1(CCCCC1)C(=O)N2c1ccc(Cl)cc1` [Example 7, (2S)-N-[4′-(4-Chlorophenyl)-3′-oxo-3′,4′-dihydrospiro[cyclohexane-1,2′-pyrido[2,3-b][1,4]oxazine]-7′-yl]-2-(methylamino)propanamide hydrochloride] has a pIC50 [1, 5] greater than 6.00, a pIC50 [1, 6] greater than 5.00 and a pIC50 [2] of 6.00 to 8.00. It also gave a pEC50 [3, 7] of 6.36, a pEC50 [3, 8] greater than 5.00 and a pIC50 [4, 9] of 6.00 to 8.00.

For `CN[C@@H](C)C(=O)Nc1ccc2c(n1)OC1(CCCC1)C(=O)N2c1ccc(Cl)cc1` [Example 8, (2S)-N-[4′-(4-Chlorophenyl)-3′-oxo-3′,4′-dihydrospiro[cyclopentane-1,2′-pyrido[2,3-b][1,4]oxazine]-7′-yl]-2-(methylamino)propanamide hydrochloride], the pIC50 [1, 5] was greater than 6.00, the pIC50 [1, 6] was greater than 5.00 and the pIC50 [2] was 6.00 to 8.00. The pEC50 [3, 7] was 6.72, the pEC50 [3, 8] was greater than 5.00 and the pIC50 [4, 9] was 6.00 to 8.00.

Work on `CN[C@@H](C)C(=O)Nc1ccc2c(n1)OC1(Cc3ccccc3C1)C(=O)N2c1ccc(Cl)cc1` [Example 9, (2S)-N-[4′-(4-Chlorophenyl)-3′-oxo-1,3,3′,4′-tetrahydrospiro[indene-2,2′-pyrido[2,3-b][1,4]oxazine]-7′-yl]-2-(methylamino)propanamide hydrochloride] yielded a pIC50 [1, 5] greater than 6.00, a pIC50 [1, 6] greater than 5.00 and a pIC50 [2] of 6.00 to 8.00. For the same compound, the pEC50 [3, 7] was 6.92, the pEC50 [3, 8] was greater than 5.00 and the pIC50 [4, 9] was 6.00 to 8.00.

Work on `CN[C@@H](C)C(=O)Nc1ccc2c(n1)OC(C)(C1CCCC1)C(=O)N2c1cccc(Cl)c1` (stereo partly drawn) [Example 13, (S)-N-[1-(3-Chloro-phenyl)-3-cyclopentyl-3-methyl-2-oxo-2,3-dihydro-1H-pyrido[2,3-b][1,4]oxazin-6-yl]-2-methylamino-propionamide hydrochloride] yielded a pIC50 [1, 5] greater than 6.00, a pIC50 [1, 6] greater than 5.00 and a pIC50 [2] of 6.00 to 8.00. It also gave a pEC50 [3, 7] of 6.77, a pEC50 [3, 8] greater than 5.00 and a pIC50 [4, 9] of 6.00 to 8.00.

In the case of `CN[C@@H](C)C(=O)Nc1ccc2c(n1)CN(c1cccc(Cl)c1)C(=O)N2c1cccc(Cl)c1` [Example 24, (S)—N-[1,3-Bis-(3-chloro-phenyl)-2-oxo-1,2,3,4-tetrahydro-pyrido[3,2-d]pyrimidin-6-yl]-2-methylamino-propionamide hydrochloride], the pIC50 [1, 5] was greater than 6.00, the pIC50 [1, 6] was greater than 5.00 and the pIC50 [2] was 6.00 to 8.00. It also gave a pEC50 [3, 7] of 6.44, a pEC50 [3, 8] greater than 5.00 and a pIC50 [4, 9] of 6.00 to 8.00.

`CN[C@@H](C)C(=O)Nc1ccc2c(n1)CN(c1cc(Cl)cc(Cl)c1)C(=O)N2c1cc(Cl)cc(Cl)c1` [Example 25, (S)—N-[1,3-Bis-(3,5-dichloro-phenyl)-2-oxo-1,2,3,4-tetrahydro-pyrido[3,2-d]pyrimidin-6-yl]-2-methylamino-propionamide hydrochloride] showed a pIC50 [1, 5] greater than 6.00, a pIC50 [1, 6] greater than 5.00 and a pIC50 [2] of 6.00 to 8.00. For the same compound, the pEC50 [3, 7] was 5.64, the pEC50 [3, 8] was greater than 5.00 and the pIC50 [4, 9] was 6.00 to 8.00.

For `CN[C@@H](C)C(=O)Nc1ccc2c(n1)CN(C1CCC(C)(C)CC1)C(=O)N2c1cccc(Cl)c1` [Example 35, (S)-N-[1-(3-Chloro-phenyl)-3-(4,4-dimethyl-cyclohexyl)-2-oxo-1,2,3,4-tetrahydro-pyrido[3,2-d]pyrimidin-6-yl]-2-methylamino-propionamide hydrochloride], the pIC50 [1, 5] was greater than 6.00, the pIC50 [1, 6] was greater than 5.00 and the pIC50 [2] was 6.00 to 8.00. The pEC50 [3, 7] was 6.19, the pEC50 [3, 8] was greater than 5.00 and the pIC50 [4, 9] was 6.00 to 8.00.

Compound `CN[C@@H](C)C(=O)Nc1ccc2c(n1)CN(C(C)C(C)C)C(=O)N2c1cccc(Cl)c1` (stereo partly drawn) [Example 36, (S)—N-[1-(3-Chloro-phenyl)-3-(1,2-dimethyl-propyl)-2-oxo-1,2,3,4-tetrahydro-pyrido[3,2-d]pyrimidin-6-yl]-2-methylamino-propionamide] has a pIC50 [1, 5] greater than 6.00, a pIC50 [1, 6] greater than 5.00 and a pIC50 [2] of 6.00 to 8.00. For the same compound, the pEC50 [3, 7] was 6.06, the pEC50 [3, 8] was greater than 5.00 and the pIC50 [4, 9] was 6.00 to 8.00.

With `CN[C@@H](C)C(=O)Nc1ccc2c(n1)CN(C(C)C1CCC1)C(=O)N2c1cccc(Cl)c1` (stereo partly drawn) [Example 37, (S)-N-[1-(3-Chloro-phenyl)-3-(1-cyclobutyl-ethyl)-2-oxo-1,2,3,4-tetrahydro-pyrido[3,2-d]pyrimidin-6-yl]-2-methylamino-propionamide hydrochloride] the pIC50 [1, 5] was greater than 6.00, the pIC50 [1, 6] was greater than 5.00 and the pIC50 [2] was 6.00 to 8.00. For the same compound, the pEC50 [3, 7] was 6.21, the pEC50 [3, 8] was greater than 5.00 and the pIC50 [4, 9] was 6.00 to 8.00.

Work on `CN[C@@H](C)C(=O)Nc1ccc2c(n1)CN(C1CCN(C(C)=O)CC1)C(=O)N2c1cccc(Cl)c1` [Example 38, (S)—N-[3-(1-Acetyl-piperidin-4-yl)-1-(3-chloro-phenyl)-2-oxo-1,2,3,4-tetrahydro-pyrido[3,2-d]pyrimidin-6-yl]-2-methylamino-propionamide] yielded a pIC50 [1, 5] greater than 6.00, a pIC50 [1, 6] greater than 5.00 and a pIC50 [2] of 5.00 to 6.00. The inhibition at 10 µM ([3]; EVSA-T) was 75%, the pEC50 [3, 8] was greater than 5.00 and the pIC50 [4, 9] was 6.00 to 8.00.

Compound `CN[C@@H](C)C(=O)Nc1ccc2c(n1)CN(CC1CCCC1)C(=O)N2c1cccc(Cl)c1` [Example 42, (S)—N-[1-(3-Chloro-phenyl)-3-cyclopentylmethyl-2-oxo-1,2,3,4-tetrahydro-pyrido[3,2-d]pyrimidin-6-yl]-2-methylamino-propionamide hydrochloride] has a pIC50 [1, 5] greater than 6.00, a pIC50 [1, 6] greater than 5.00 and a pIC50 [2] of 6.00 to 8.00. For the same compound, the pIC50 [4, 9] was 6.00 to 8.00.

In the case of `CCC1(CC)Oc2nc(NC(=O)[C@H](C)N)ccc2N(c2ccc(Cl)cc2)C1=O` [Example 45, (S)-2-Amino-N-[1-(4-chloro-phenyl)-3,3-diethyl-2-oxo-2,3-dihydro-1H-pyrido[2,3-b][1,4]oxazin-6-yl]-propionamide hydrochloride], the pIC50 ([1]; read-out: IC50 or at least 50% inhibition of the activity at a concentration of 1 μM) was greater than 6.00, the pIC50 ([1]; read-out: IC50 or at least 50% inhibition of the activity at a concentration of 10 μM) was greater than 5.00 and the pIC50 [2] was 6.00 to 8.00. The pEC50 ([3]; EVSA-T, 72 h, read-out: EC50 or PI EVSA-T prolif) was 5.54 and the pEC50 ([3]; EVSA-T, read-out: EC50 or greater than 50% at 10 μM) was greater than 5.00.
